Results reported in patent US8815887B2, “Prophylactic or therapeutic method for Sjogren's syndrome” (Takeda Pharmaceutical Company Limited, priority 2012, dated 2014).
Values belong to the molecule of their own block, whether it stands above or below them.

Tests used:
Type in all cases: in vivo
[1] = test system: NOD/ShiLtJ mouse; assay: Saliva secretion amount by pilocarpine stimulation in Sjogren's syndrome animal model
Excerpt: As an animal model for Sjogren's syndrome, most widely used NOD/ShiLtJ mouse (hereinafter sometimes referred to as NOD mouse) was selected since it meets the both conditions of the diagnosis standard: 1) development of dry eye and dry mouth, 2) increase of anti-SS-A/Ro and anti-SS-B/La antibody titer, and is easily available (Tegan N. Lavoie et. al., Journal of Biomedicine and Biotechnology Volume 2011 (2011), Article ID 549107, pp 1-14). 6-Week-old NOD mice were purchased from The Jackson Laboratory (US), after acclimatization for 1-2 weeks, animals before onset of diabetes were divided into 3 groups (maximum 30 mice per group) by randomization into each of the groups based on the body weight measured before the start of the test drug administration and the data of saliva secretion amount by pilocarpine stimulation under ketamine•xylazine anesthesia and subjected to the test. During the test drug treatment, the body weight and the blood glucose level were monitored at least once a week. The blood glucose level of several μL of the blood collected from the tail vein under 1-5% isoflurane anesthesia was measured by a blood glucose level measuring instrument (Accu-Chek Aviva Nano, Roche diagnostics K.K.). The diabetes diagnosis criteria was not less than 250 mg/dL, and one insulin pellet (LinBit, LinShin Canada, Inc.) was subcutaneously transplanted under 1-5% isoflurane anesthesia into the abdomen of the mouse that developed diabetes, and the blood glucose was controlled during the study by monitoring the blood glucose level, and adding or removing the pellet as necessary.
Compound A was orally administered twice daily (minimum ic dosing interval 6 hours) every day except Saturdays and Sundays. The dose of compound A was 50 mg/kg or 250 mg/kg, and 0.2 mL was orally administered as a single dose. The concentration of compound A was appropriately controlled by calculating an average body weight of the group once a week from the body weights of the NOD mice, and adjusting the concentration such that the administration of 0.2 mL results in the administration of each dose. On the other hand, the vehicle group without administration of compound A was orally administered with 0.2 mL of 0.5% methylcellulose solution in the same schedule as above.
Under anesthesia by intraperitoneal administration of a mixture (10 mL/kg) of ketamine (100 mg/kg) and xylazine (10 mg/kg), the saliva secreted in 15 min after subcutaneous administration of pilocarpine (5 mg/kg) was collected with defatted cotton, and the secretion amount was calculated from the defatted cotton weight before and after the measurement.
This measurement was performed twice when the mice reached 21-week-old and 26-week-old.
(§1) The saliva secretion amount in 23-week-old NOD mice administered with compound A or compound B was measured in the same manner as in Experimental Example 2.

[2] = test system: CD4+ T cells in the salivary gland; assay: CD4 mRNA level (CD4+ T cells) in salivary gland tissue, normalized to β-actin; settings: 26-week-old NOD mouse, compound A treatment group (50 and 250 mg/kg)
Excerpt: (§2) The salivary gland of the 26-week-old NOD mice used in Experimental Example 2 for the measurement of the saliva secretion amount was removed, the total RNA was recovered from there, and the mRNA levels of CD4, CD8 and CCR9 were normalize with the β-actin expression level as the internal standard.

[3] = test system: NOD/ShiLtJ mouse; assay: Tolerability in the long-term efficacy study (Experimental Example 3); settings: relatively long term, same dose range (50 and 250 mg/kg)
Protocol: as §1

[4] = test system: anti-SS-A/Ro antibody; assay: Anti-SS-A/Ro Ig ELISA of blood of Sjogren's syndrome animal model; settings: 26-week-old NOD mouse; for onset frequency (positive anti-SS-A/Ro, antibody titer not less than 30 Unit): vehicle 100% onset
Protocol: Blood samples from the 26-week-old NOD mice used in Experimental Example 2 for the measurement of the saliva secretion amount were collected, and ELISA test was carried out for two subsets of anti-SS-A/Ro and anti-SS-B/La found commonly in Sjogren's syndrome.
For quantification of the Total Anti-SSA Ig (IgG+IgA+IgM) in the serum, commercially available Mouse Anti-SSA Total Ig ELISA Kit Cat. No. 5710 (manufactured by ALPHA DIAGNOSTIC INTERNATIONAL) was used. The standard protocol was partly modified. A mouse serum sample was diluted 1/10-fold, the serum of C57BL/6 mouse was added to anti-SSA calibrator solution (Calibrator solution) to give 10% serum.

[5] = test system: CCR9; assay: CCR9 mRNA expression level in salivary gland tissue, normalized to β-actin; settings: 26-week-old NOD mouse, 50 and 250 mg/kg
Excerpt: as §2

[6] = Time-course changes in plasma concentration in Sjogren's syndrome animal model; settings: NOD mouse, oral twice per day 50 and 250 mg/kg, repeated for 19 weeks
Protocol: The compound was orally administered twice per day to 8-week-old NOD mouse under the following conditions, and administration was repeated for 19 weeks.
To the plasma (5 μL) collected from the NOD mouse were added a solvent solution (dimethyl sulfoxide/acetonitrile (2:8), 5 μL), and compound A solution (compound A dissolved in solvent solution, 5 μL) or compound B solution (compound B dissolved in solvent solution, 5 μL) for drawing an analytical curve. An internal standard substance (acetonitrile (115 μL) containing a deuterated form of compound A, or diclofenac sodium, 100 ng/mL)) was added, and the mixture was vigorously stirred. The mixture was centrifuged at 5250 rpm. To the supernatant (30 μL) was added a dilution solvent (60 μL) to give a sample solution (mobile phase A:mobile phase B=9:1 (v/v) was used as a dilution solvent).
The above-mentioned sample solution was injected into an HPLC-MS/MS analysis apparatus, and the obtained peak area was converted to concentration from the analytical curve. The detail of the analysis apparatus is shown below.

[7] = test system: CD8+ T cells in the salivary gland; assay: CD8 mRNA level (CD8+ T cells) in salivary gland tissue, normalized to β-actin; settings: 26-week-old NOD mouse
Excerpt: as §2

[8] = test system: anti-SS-B/La antibody; assay: Anti-SS-B/La IgG ELISA of blood of Sjogren's syndrome animal model; settings: 26-week-old NOD mouse, 50 and 250 mg/kg
Protocol: Blood samples from the 26-week-old NOD mice used in Experimental Example 2 for the measurement of the saliva secretion amount were collected, and ELISA test was carried out for two subsets of anti-SS-A/Ro and anti-SS-B/La found commonly in Sjogren's syndrome. […]
antigen: SS-B (RayBiotech, Inc., MD-27-0019P) plate: Immuno 96 Microwell Plate (Nunc, 442404) washing: 0.1% Tween 20 containing PBS (hereinafter sometimes to be referred to as PBS/T) substrate: One tablet of o-phenylenediamine dihydrochloride (OPD) (Sigma, P-4809) was dissolved in 50 mM citric acid-phosphoric acid buffer pH 5.0 (Sigma, P-4809) (10 mL), and 4 μL aqueous hydrogen peroxide was added.
SS-A and SS-B were each diluted with 50 mM carbonate buffer pH 9.6 (Sigma, C-3041) to 0.5 μg/mL and 1.0 μg/mL, respectively, and the antigen was added to an ELISA plate at 50 μL/well. After incubation at 4° C. overnight, the plate was washed 3 times with PBS/T, added with 2% BSA in PBS at 200 μL/well, and incubated at room temperature for 1 hr. After washing once with PBS/T, the serum diluted with PBS/T (100- to 500-fold) was added at 50 μL/well, and the mixture was incubated at room temperature for 1-2 hr. […]

[9] = 23-week-old NOD mouse, 50 mg/kg

SMILES: CC(C)Oc1ccc(S(=O)(=O)Nc2ccc(Cl)cc2C(=O)c2cc[n+]([O-])cc2)cc1 [compound A, N-{4-chloro-2-[(1-oxidopyridin-4-yl)carbonyl]phenyl}-4-(propan-2-yloxy)benzenesulfonamide]
saliva secretion amount ([1]; 21-week-old NOD mouse, 50 mg/kg orally twice daily from 8-week-old, vehicle about 8.3): about 9.8 mg/15 min/g BW
saliva secretion amount ([1]; 21-week-old NOD mouse, 250 mg/kg orally twice daily from 8-week-old, vehicle about 8.3): about 11.2 mg/15 min/g BW
saliva secretion amount compared to the vehicle group [1, 9]: significantly suppressed a decrease in the saliva secretion amount
saliva secretion amount compared to the vehicle group ([1]; 23-week-old NOD mouse, 250 mg/kg): significantly suppressed a decrease in the saliva secretion amount
saliva secretion amount ([1]; 26-week-old NOD mouse, 50 mg/kg orally twice daily from 8-week-old, vehicle about 4.0): about 5.5 mg/15 min/g BW
increase of saliva secretion amount than the vehicle group ([1]; 26-week-old NOD mouse, 250 mg/kg): two-fold increase
saliva secretion amount ([1]; 26-week-old NOD mouse, 250 mg/kg orally twice daily from 8-week-old, vehicle about 4.0): about 8.0 mg/15 min/g BW
effect on decrease in saliva secretion amount (dose dependence) ([1]; NOD mouse, 50 and 250 mg/kg, 21- and 26-week-old): significantly suppressed a decrease in the saliva secretion amount in a dose-dependent manner
amount of CD4+ T cells in the salivary gland as compared to the vehicle group [2]: decreased to about half
tolerability [3]: clearly superior with compound A to compound B
onset frequency (positive anti-SS-A/Ro, antibody titer not less than 30 Unit) ([4]; 50 mg/kg): about 50%
share of treatment group with anti-SS-A/Ro antibody suppressed to the control level ([4]; 250 mg/kg, control C57BL/6 mouse): about 70%
onset frequency (positive anti-SS-A/Ro, antibody titer not less than 30 Unit) ([4]; 250 mg/kg): about 30%
anti-SS-A/Ro antibody titer in blood ([4]; 50 and 250 mg/kg): decreased in a dose-dependent manner
mRNA expression level of CCR9 in the salivary gland as compared to the vehicle group [5]: tended to decrease in a dose-dependent manner
blood exposure [6]: good blood exposure
metabolism / accumulation in the body [6]: rapidly metabolized without accumulation in the body
amount of CD8+ T cells in the salivary gland as compared to the vehicle group ([7]; 50 mg/kg): decreased to about half
amount of CD8+ T cells in the salivary gland as compared to the vehicle group ([7]; 250 mg/kg): about one-third
anti-SS-B/La antibody titer in blood [8]: decreased in a dose-dependent manner

AUC relative to compound A [6]: about one-tenth that of compound A
SMILES: CC(C)(C)c1ccc(S(=O)(=O)Nc2ccc(Cl)cc2C(=O)c2cc[n+]([O-])cc2)cc1 [compound B, N-{4-chloro-2-[(1-oxidopyridin-4-yl)carbonyl]phenyl}-4-(tert-butyl)benzenesulfonamide]
saliva secretion amount compared to the vehicle group [1, 9]: significantly higher
dose-dependent effect on saliva secretion amount ([1]; 23-week-old NOD mouse, 50 and 250 mg/kg): the dose-dependent effect was not found
metabolism / accumulation in the body [6]: rapidly metabolized without accumulation in the body
